The subject of data set [1] is fundus of the stomach (gastric tone) in conscious dogs. The experiment in a line: Gastric tone measured by an electronic barostat in conscious dogs. It counts as in vivo, beagle dogs. The following applies: I.D. administration, 0.63 mg/kg, 1 hour observation period, constant pressure of 6 mmHg. From the text: C. Pharmacological Examples C.1. Gastric Tone Measured by an Electronic Barostat in Conscious Dogs
Gastric tone cannot be measured by manometric methods. Therefore an electronic barostat was used. This allows the study of the physiological pattern and regulation of gastric tone in conscious dogs and the influence of test-compounds on this tone.
The barostat consists of an air injection system which is connected by a double-lumen 14-French polyvinyl tube to an ultrathin flaccid polyethylene bag (maximal volume:±700 ml). Variations in gastric tone were measured by recording changes in the volume of air within an intragastric bag, maintained at a constant pressure. The barostat maintains a constant pressure (preselected) within a flaccid air-filled bag introduced into the stomach, changing the volume of air within the bag by an electronic feedback system.
Thus, the barostat measures gastric motor activity (contraction or relaxation) as changes in intragastric volume (decrease or increase resp.) at a constant intragastric pressure. […]
When during a stabilisation period of maximum 90 minutes, the gastric volume is stable during 15 minutes at a constant pressure of 6 mmHg (about 0.81 kPa), the test compound was administered subcutaneously (S.C.), or intraduodenally (I.D.). Test compounds were screened, i.e. changes in gastric volume were measured, usually at 0.63 mg/kg. […]

Here are results for two molecules from patent US7273862B2, “Aminoalkyl substituted (benzodioxan, benzofuran or benzopyran) derivatives” (Janssen Pharmaceutica N.V., priority 1999, dated 2007).

As a reminder, the melting point is the temperature of the solid-liquid transition.

Each structure is given as a SMILES string. Counter-ions that a name gives are not always drawn.

For `O=C1NCCCN1CC(O)CNCC(O)C1CCc2ccccc2O1` (centres unmarked) (as salt: hydrochloride) (hydrate or solvate) [Compound 15, [S(A)]-1-[3-[[2-(3,4-dihydro-2H-1-benzopyran-2-yl)-2-hydroxyethyl]amino]-2-hydroxypropyl]tetrahydro-2(1H)-pyrimidinone monohydrochloride dihydrate], the melting point came to 138 °C.

As to `O=C1NCCCN1CC(O)CNCC(O)C1CCc2ccccc2O1` (centres unmarked) [Compound 15, [S(A)]-1-[3-[[2-(3,4-dihydro-2H-1-benzopyran-2-yl)-2-hydroxyethyl]amino]-2-hydroxypropyl]tetrahydro-2(1H)-pyrimidinone monohydrochloride dihydrate], the “Maximum change in volume (mean maximal change in volume on relaxation of the fundus)” value in data set [1] worked out at 5 mL.
